Where two headings read alike, the source gives them in different places. One block for each molecule: values may come before it.
Experiments:
human p38 kinase alpha = target: T1, human p38 kinase alpha (Homo sapiens, UniProt Q16539); assay: p38 kinase in vitro assay, phosphorylation of biotinylated PHAS-I with 32P-ATP; format: biochemical; details: for IC50: read-out: P38 alpha kinase IC50
T1 construct: GST (N, cleaved yes); made in house; host or cells: E. coli DH10B

[1] = system: TNF-α, U937 human histiocytic lymphoma cell line; assay: LPS stimulation of TNF production by U937 cells; format: cell-based; details: for U937 Cell % inhib @ conc. (uM): TNF production in human U937 cells stimulated with LPS; for inhibition at 1 µM: U-937, @ 1.0 uM
Description: Maintenance and Differentiation of the U937 Human Histiocytic Lymphoma Cell Line:
Fifty million cells in 100 ml media were induced to terminal monocytic differentiation by 24 hour incubation with 20 ng/ml phorbol 12-myristate 13-acetate (Sigma). The cells were washed by centrifugation (200×g for 5 min) and resuspended in 100 ml fresh medium. After 24-48 hours, the cells were harvested, centrifuged, and resuspended in culture medium at 2 million cells/ml.
LPS Stimulation of TNF Production by U937 Cells:
Compounds were prepared as 10 mM stock solutions in DMSO and diluted in culture medium to yield a final DMSO concentration of 0.1% in the cell assay. LPS (E coli, 100 ng/ml final concentration) was then added at a volume of 0.02 ml. After 4 hour incubation at 37° C., the amount of TNF-α released in the culture medium was quantitated by ELISA. Inhibitory potency is expressed as IC50 (μM).
In vitro whole cell assay for measuring the ability of the compounds to inhibit TNF production in human U937 cells stimulated with LPS are shown in the column identified as: • “U937 Cell IC50, uM or % inhib @ conc., (uM)”

[2] = TNF production, U937 cells stimulated with LPS, read-out: U937 Cell IC50, uM or % inhib @ conc. (uM): IC50
[3] = in vitro P38-alpha kinase inhibition
[4] = Homo sapiens, TNF production, U937 cells stimulated with LPS, read-out: U937 Cell % inhib @ conc.
[5] = @ 10.0 uM, TNF production, LPS-stimulated U937 cells
[6] = Homo sapiens, U-937, TNF production, human U937 cells stimulated with LPS, read-out: U937 Cell IC50
[7] = Homo sapiens, TNF production, LPS-stimulated U937 cells, read-out: U937 Cell % inhib @ conc.
[8] = TNF production, human U937 cells stimulated with LPS, read-out: U937 Cell IC50

T1 sequence (Q16539 whole entry): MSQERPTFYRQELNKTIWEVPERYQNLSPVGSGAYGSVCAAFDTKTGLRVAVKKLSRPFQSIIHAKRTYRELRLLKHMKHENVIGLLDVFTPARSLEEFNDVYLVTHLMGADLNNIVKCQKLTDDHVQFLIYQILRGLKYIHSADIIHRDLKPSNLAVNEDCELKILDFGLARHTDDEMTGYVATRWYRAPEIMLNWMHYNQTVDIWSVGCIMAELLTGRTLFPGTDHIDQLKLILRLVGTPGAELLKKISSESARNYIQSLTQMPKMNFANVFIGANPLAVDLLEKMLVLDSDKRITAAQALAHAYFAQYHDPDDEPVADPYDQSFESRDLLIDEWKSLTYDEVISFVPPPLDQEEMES

IC50 (human p38 kinase alpha; [3]): 2.19 µM
Structure (SMILES): CC(NC(=O)c1ccc(C(F)(F)F)cc1)c1[nH]nc(-c2ccc(F)cc2)c1-c1ccncc1 (stereo not drawn) [Example B-0704]
U937 Cell % inhib @ conc. (uM) ([1]; @ 1.0 uM): 29.0% @

IC50 (human p38 kinase alpha; [3]): 0.19 µM
Structure (SMILES): O=S(=O)(NCCc1[nH]nc(-c2ccc(F)cc2)c1-c1ccncc1)c1cc(Cl)c(Cl)s1 [Example B-1080]
inhibition at 1 µM [1, 4]: 28%

IC50 (human p38 kinase alpha; [3]): 1.06 µM
IC50 [1, 6]: > 1 µM
Structure (SMILES): CCNC(=O)NC(CCC(=O)NC)c1[nH]nc(-c2ccc(F)cc2)c1-c1ccncc1 (stereo not drawn) [Example B-0883]

IC50 (human p38 kinase alpha; in vitro P38-alpha kinase): 1.69 µM
IC50 [1, 6]: > 1 µM
Structure (SMILES): O=S(=O)(c1cccc(Br)c1)N1CCC(c2[nH]nc(-c3ccc(F)cc3)c2-c2ccncc2)CC1 [Example B-1466]

P38 alpha kinase IC50, uM or % inhib @ conc. (uM): % inhib (human p38 kinase alpha; @ 10.0 uM): 83.0% @
U937 Cell IC50, uM or % inhib @ conc. (uM): % inhib ([1]; @ 10.0 uM, TNF production, U937 cells stimulated with LPS): 18.0% @
Structure (SMILES): Cc1cccc(C)c1NC(=O)Cn1nc(-c2ccc(F)cc2)c(-c2ccncc2)c1C [Example B-2417]

P38 alpha kinase % inhib @ conc. (uM) (human p38 kinase alpha; @ 1.0 uM): 71.0% @
IC50 [1, 8]: 0.79 µM
Structure (SMILES): COc1cccc(C(=O)NCCCc2[nH]nc(-c3ccc(F)cc3)c2-c2ccncc2)c1 [Example B-1185]

IC50 (human p38 kinase alpha; [3]): 3.58 µM
Structure (SMILES): O=C(NCCc1[nH]nc(-c2ccc(F)cc2)c1-c1ccncc1)c1ccc(Cl)cc1 [Example B-1121]
inhibition at 1 µM [1, 4]: 29%

inhibition at 1 µM (human p38 kinase alpha; @ 1.0 uM, read-out: P38 alpha kinase % inhib @ conc.): 84%
Structure (SMILES): O=C(NCc1[nH]nc(-c2ccc(F)cc2)c1-c1ccncc1)c1c(Cl)cc(Cl)cc1Cl [Example B-0019]
inhibition at 10 µM ([1]; Homo sapiens, U-937, @ 10.0 uM, TNF production, U937 cells stimulated with LPS, read-out: U937 Cell % inhib @ conc.): 100%

IC50 (human p38 kinase alpha; [3]): 1.57 µM
IC50 ([1]; Homo sapiens, U-937, TNF production in human U937 cells stimulated with LPS, read-out: U937 Cell IC50): 38 µM
Structure (SMILES): CCCNC(=O)NC(C)c1[nH]nc(-c2ccc(F)cc2)c1-c1ccncc1 (stereo not drawn) [Example B-0590]

P38 alpha kinase % inhib @ conc. (human p38 kinase alpha; @ 1.0 uM): 44.0% @
Structure (SMILES): CCOC(=O)C(CCSC)NC(=O)NCc1[nH]nc(-c2ccc(F)cc2)c1-c1ccncc1 (stereo not drawn) [Example B-0147]
U937 Cell % inhib @ conc. ([1]; @ 1.0 uM, TNF production, U937 cells stimulated with LPS): 22.0% @

IC50 (human p38 kinase alpha; [3]): 0.62 µM
Structure (SMILES): CC(NC(=O)c1cccc(F)c1)c1[nH]nc(-c2ccc(F)cc2)c1-c1ccncc1 (stereo not drawn) [Example B-0694]
U937 Cell % inhib @ conc. (uM) ([1]; @ 1.0 uM): 21.0% @

The next lines start with the molecule.

Structure (SMILES): CCCCCCCCOc1cccc(NC(=O)Cn2nc(-c3ccc(F)cc3)c(-c3ccncc3)c2C)c1 [Example B-2442]
P38 alpha kinase IC50, uM or % inhib @ conc. (uM): % inhib (human p38 kinase alpha; @ 10.0 uM): 86.0% @
IC50 [1, 2]: > 10 µM

Structure (SMILES): Cc1c(-c2ccncc2)c(-c2ccc(F)cc2)nn1CC(=O)N1CCC[C@H]1CN1CCCC1 [Example B-2384]
P38 alpha kinase % inhib @ conc. (human p38 kinase alpha; @ 100.0 uM): 49% @
U937 Cell % inhib @ conc. [1, 5]: 10.0% @

Structure (SMILES): O=C(NC(Cc1ccccc1)c1[nH]nc(-c2ccc(F)cc2)c1-c1ccncc1)C1CCCN1 (stereo not drawn) [Example B-0795]
IC50 (human p38 kinase alpha; [3]): 1.9 µM
U937 Cell % inhib @ conc. (uM) ([1]; @ 1.0 uM): 11.0% @

Structure (SMILES): O=C(c1ccc(Br)cc1)N1CCC(c2[nH]nc(-c3ccc(F)cc3)c2-c2ccncc2)CC1 [Example B-1388]
IC50 (human p38 kinase alpha; in vitro P38-alpha kinase): 0.57 µM
IC50 [1, 6]: 1.38 µM

Structure (SMILES): Cc1ccc(NC(=O)Cn2nc(-c3ccc(F)cc3)c(-c3ccncc3)c2C)cc1 [Example B-2423]
P38 alpha kinase IC50, uM or % inhib @ conc. (uM): % inhib (human p38 kinase alpha; @ 10.0 uM): 85.0% @
IC50 [1, 2]: > 10 µM

Structure (SMILES): O=S(=O)(c1ccc(C(F)(F)F)cc1)N1CCC(c2[nH]nc(-c3ccc(F)cc3)c2-c2ccncc2)CC1 [Example B-1474]
IC50 (human p38 kinase alpha; in vitro P38-alpha kinase): 1.23 µM
inhibition at 1 µM [1, 7]: 31%

Structure (SMILES): COc1ccccc1CCNC(=O)Cn1nc(-c2ccc(F)cc2)c(-c2ccncc2)c1C [Example B-2315]
IC50 (human p38 kinase alpha; in vitro P38-alpha kinase): 0.49 µM
U937 Cell % inhib @ conc. [1, 5]: 36.0% @

Structure (SMILES): COC(=O)[C@H](CSCc1ccccc1)NC(=O)Cn1nc(-c2ccc(F)cc2)c(-c2ccncc2)c1C [Example B-2339]
P38 alpha kinase % inhib @ conc. (human p38 kinase alpha; @ 10.0 uM): 84.0% @
IC50 [1, 8]: > 10 µM

Structure (SMILES): Cc1ccc(S(=O)(=O)N2CCC(c3[nH]nc(-c4ccc(F)cc4)c3-c3ccncc3)CC2)cc1 [Example B-1473]
IC50 (human p38 kinase alpha; in vitro P38-alpha kinase): 1.24 µM
inhibition at 1 µM [1, 7]: 14%

Structure (SMILES): O=C(c1ccccn1)N1CCC(c2[nH]nc(-c3ccc(F)cc3)c2-c2ccncc2)CC1 [Example B-1386]
IC50 (human p38 kinase alpha; in vitro P38-alpha kinase): < 0.1 µM
IC50 [1, 6]: 0.25 µM

Source: patent US6979686B1, “Substituted pyrazoles as p38 kinase inhibitors” (Pharmacia Corporation, priority 2001, dated 2005)
